Assay [1] can be described thus: Inhibition of Leishmania mexicana CPB2.8.
The nature of assay [2]: Binding affinity to Leishmania mexicana CPB2.8 assessed as inhibition constant.
A further assay deals with Leishmania infantum. In words: Antileishmanial activity against Leishmania infantum promastigote assessed as reduction in parasite growth after 72 hrs by MTT assay relative to control. In kind it is functional. Also on record: scale not given: the % may be the effect or the level left. (In general: Tetrazolium assays rely on reduction of a dye to a coloured formazan, in cell work by metabolically active cells.)

Assay [3] is described as follows: Inhibition of Leishmania donovani cysteine protease.
A further assay deals with Leishmania amazonensis. Briefly: Antileishmanial activity against Leishmania amazonensis promastigotes assessed as inhibition of parasite growth. Format: functional, organism-based.
The subject of the next assay is Leishmania major. Briefly: Antileishmanial activity against Leishmania major promastigotes MHOM/IL/81/FE/BN. Format: functional, organism-based.
The next assay concerns Leishmania donovani. In words: Antileishmanial activity against Leishmania donovani MHOM/IN/1983/AG83 axenic amastigotes assessed as inhibition of growth at 10 uM relative to control. Format: functional. Also on record: scale not given: the % may be the effect or the level left.

Values after ≈ are worked out from the molar mass of the structure shown. *1 amine or outer side, *2 acyl side, *3 side chain or, on linkers, in order; H or OH if unused. Where a SMILES comes first, the peptide text is derived from it. [ ]: non-standard residue; d: D form. X1 = O=C1CC2C(=O)N(CCN[*:1])C(=O)C2C(c2ccc(C(=O)[*:2])cc2)C1; X2 = O=C1CC2C(=O)N(CCN[*:1])C(=O)C2C(C(=O)[*:2])C1; Cha = N[C@@H](CC1CCCCC1)C(=O)O

Drawing on ChEMBL document CHEMBL6134829, “Targeting cysteine protease B to discover antileishmanial drugs: Directions and advances” (Eur J Med Chem, 2025), this text covers IC50, Ki and Activity for 37 compounds.

Usually IC50 stands for the concentration that inhibits the measured activity by half. In turn, `COc1ncccc1Nc1nc(C#N)nc(NC2CCCCC2)n1` came in with a concentration for half-maximal inhibition (IC50) in assay [1] of 1.1 µM.

In turn, `COc1ccc(-c2ccc(/C=N/NC(N)=S)o2)cc1` displayed an IC50 in assay [1] of 0.07 µM.

As to `O=C(N[C@H](/C=C/S(=O)(=O)c1ccccc1)CCc1ccccc1)[C@H](Cc1ccccc1)NC(=O)N1CCOCC1`, the IC50 in assay [1] was determined as 0.027 µM.

For `CC(C)[C@H](NC(=O)c1ccc(C2CC(=O)CC3C(=O)N(CCNC(=O)[C@H](CC(=O)O)NC(=O)[C@@H](N)Cc4c[nH]c5ccccc45)C(=O)C32)cc1)C(=O)N[C@@H](CO)C(=O)N[C@@H](CCCCN)C(N)=O` (stereo partly specified) (H-WD[X1]VSK-NH2), in assay [1], the IC50 turned out to be 1.7 µM.

Compound `NC(=O)N/N=c1\oc2ccccc2cc1-c1nc2ccccc2[nH]1` returned an IC50 in assay [1] of 0.01 µM.

Take `O=C1CC(c2ccc(O)cc2)Oc2cc(O)c(-c3c(O)cc(O)c4c(=O)cc(-c5ccc(O)cc5)oc34)c(O)c21` (stereo unspecified): in assay [1], half-maximal inhibition (IC50) required 0.43 µM.

Usually Ki stands for the equilibrium dissociation constant of an inhibitor or competing ligand from its target. Regarding `COC(=O)c1ccc(NC(=O)CSc2nc3ccccc3n2S(=O)(=O)c2cc(C)cc(C)c2)cc1`, in assay [1], the half-inhibitory concentration (IC50) turned out to be 0.54 µM. In assay [2], the inhibitory constant (Ki) was 0.18 µM.

Consider `CC(C)C[C@H](NC(=O)OC(C)(C)C)C(=O)N1CCC[C@@H]1C(=O)N1[C@@H](C(=O)OCc2ccccc2)[C@@H]1C(=O)OCc1ccccc1`, for which, in assay [1], the IC50 stood at 3.8 µM.

For the compound `CC(C)(F)C[C@H](N[C@@H](c1ccc(-c2ccc(S(C)(=O)=O)cc2)cc1)C(F)(F)F)C(=O)NC1(C#N)CC1` [ODANACATIB], the Activity in the assay with Leishmania infantum came out at 90%.

For `CC(C)[C@H](NC(=O)c1ccc(C2CC(=O)CC3C(=O)N(CCNC(=O)[C@H](Cc4c[nH]c5ccccc45)NC(=O)[C@@H](N)CC4CCCCC4)C(=O)C32)cc1)C(=O)N[C@H](C(=O)N[C@@H](Cc1ccccc1)C(N)=O)C(C)C` (stereo partly specified) (H-[Cha]W[X1]VVF-NH2), half-maximal inhibition in assay [1] (IC50) was put at 0.45 µM.

In the case of `CC(C)(C)OC(=O)N[C@@H](Cc1cccc(Cl)c1)C(=O)NCC#N`, the Activity in the assay on Leishmania infantum is listed as 35%.

In assay [1], `O=C(N[C@@H](Cc1ccccc1)C(=O)c1cc(-c2ccccc2)on1)[C@H](Cc1ccccc1)NC(=O)N1CCOCC1` registered a concentration for half-maximal inhibition (IC50) of 0.1 µM.

As to `COC(=O)c1ccc(NC(=O)CSc2nc3ccc(Cl)cc3n2Cc2cc(C)cc(C)c2)c(Cl)c1`, in assay [1], the half-maximal inhibitory concentration (IC50) amounted to 2.06 µM. For the same compound, the Ki in assay [2] amounted to 0.69 µM.

On to `O=C1CC(c2ccc(O)c(-c3c(O)cc4c(c3O)C(=O)CC(c3ccc(O)cc3)O4)c2)Oc2cc(O)cc(O)c21` (stereo unspecified), for which half-maximal inhibition in assay [1] (IC50) was put at 2.2 µM.

In turn, `O=C(CN1C(=O)/C(=N\NC(=O)c2ccncc2)c2ccccc21)Nc1ccccc1` showed a half-maximal inhibitory concentration (IC50) in assay [3] of 62.6 µM.

Turning to `COc1ccc2nc3cc(Cl)ccc3c(-n3c(=S)[nH][nH]c3=S)c2c1`, the values for the 50% inhibitory concentration (IC50) (in assay [1]; with Leishmania amazonensis) were 1.14 µM and 6.57 mg/L (≈ 17.5 µM), respectively.

Compound `CN(C)c1ccc(/C=C/C(=O)c2cc(Cl)ccc2O)cc1` registered an IC50 in assay [1] of 3.97 µM. The inhibition constant (Ki) in assay [2] is 5.47 µM.

In the case of `CC(C)C[C@H](NC(=O)OC(C)(C)C)C(=O)N1CCC[C@@H]1C(=O)N1[C@H](C(=O)OCc2ccccc2)[C@H]1C(=O)OCc1ccccc1`, the 50% inhibitory concentration (IC50) with Leishmania major was 39.6 µM.

In assay [1], `O=c1c(O)c(-c2ccc3c(c2)OCO3)oc2ccccc12` returned a half-inhibitory concentration (IC50) of 5.23 µM. In addition, in assay [2], the Ki was 7.06 µM.

In the case of `O=C1c2c(O)cc(O)cc2O[C@@H](c2ccc(O)cc2)[C@@H]1c1c(O)cc(O)c2c(=O)cc(-c3ccc(O)c(O)c3)oc12`, the IC50 in assay [1] amounted to 5.2 µM; in the assay with Leishmania amazonensis, 95 mg/L (≈ 171 µM).

Turning to `CCOc1cc(/C=C2\SC(=O)NC2=O)ccc1O`, in assay [1], the 50% inhibitory concentration (IC50) is 1.42 µM. Besides, in the assay with Leishmania donovani, the Activity came out at 100%.

As to `Oc1cccc(/C=N\c2cccc3c(/N=C/c4cccc(O)c4O)cccc23)c1O`, the half-inhibitory concentration (IC50) in assay [3] is 113 µM.

In assay [1], `C[C@@H]1CCC2(C(=O)O)CC[C@]3(C)C(=CCC4[C@@]5(C)CCC(=O)C(C)(C)C5CC[C@]43C)C2[C@H]1C` (stereo partly specified) registered an IC50 of 3.78 µM. Further, the Ki in assay [2] was 1.26 µM.

For the compound `O=C(N[C@@H](CCc1ccccc1)C(=O)c1cc(-c2ccccc2)on1)[C@H](Cc1ccccc1)NC(=O)N1CCOCC1`, in assay [1], the 50% inhibitory concentration (IC50) worked out at 0.19 µM.

Compound `COC(=O)c1ccc(NC(=O)CSc2nc3ccc(Cl)cc3n2S(=O)(=O)c2cc(C)cc(C)c2)c(Cl)c1` registered an IC50 in assay [1] of 0.45 µM. Also, the Ki in assay [2] was determined as 0.15 µM.

As to `CC(C)=CCOc1ccc(C(=O)c2ccc(O)cc2)c(O)c1`, 2.9 µM corresponded to half-maximal inhibition in assay [1] (IC50). For the same compound, the Ki in assay [2] was found to be 4.3 µM.

The compound `O=C(N[C@@H](Cc1ccccc1)C(=O)c1noc(-c2ccccc2)n1)[C@H](Cc1ccccc1)NC(=O)N1CCOCC1` came in with an IC50 in assay [1] of 0.05 µM.

The compound `CN1CCN(C(=O)N[C@@H](Cc2ccccc2)C(=O)N[C@@H](CCc2ccccc2)C(=O)c2cc(-c3ccccc3)on2)CC1` showed an IC50 in assay [1] of 0.23 µM.

`O=C1NC(=O)/C(=C/c2ccc([N+](=O)[O-])cc2)S1` had an IC50 in assay [1] of 0.98 µM. Besides, the Activity with Leishmania donovani worked out at 93.98%.

`O=C(O)c1ccccc1N/N=C/c1ccc(/C=N/Nc2ccccc2C(=O)O)cc1` had a concentration for half-maximal inhibition (IC50) in assay [3] of 72 µM.

In the case of `Cc1ccc(C(=O)[C@@]23C(=O)OC(=O)[C@]2(C)N(C)[C@]2(c4ccccc4)Sc4ccccc4[C@H]32)cc1`, half-maximal inhibition in assay [1] (IC50) was put at 3.7 µM. Besides, the Ki in assay [2] was determined as 1.36 µM.

As to `COc1ccc(-c2oc3ccccc3c(=O)c2O)cc1`, half-maximal inhibition in assay [1] (IC50) required 4.72 µM. Besides, the Ki in assay [2] is 7.71 µM.

In the assay with Leishmania major, `CC(C)C[C@@H](NC(=O)OC(C)(C)C)C(=O)N1CCC[C@@H]1C(=O)N1[C@H](C(=O)OCc2ccccc2)[C@H]1C(=O)OCc1ccccc1` yielded a concentration for half-maximal inhibition (IC50) of 35.4 µM.

In the case of `Oc1cc(O)cc(/C=N/c2ccc(/N=C/c3ccc(O)cc3O)c(Cl)c2)c1`, the midpoint of inhibition in assay [3], the IC50, lay at 65.3 µM.

Turning to `Cc1cc(C)cc(S(=O)(=O)n2c(SCC(=O)Nc3ccccc3)nc3ccccc32)c1`, the IC50 in assay [1] worked out at 0.68 µM. Moreover, in assay [2], the Ki came to 0.23 µM.

`CC(C)C[C@H](NC(=O)C1CC(=O)CC2C(=O)N(CCNC(=O)[C@H](Cc3ccccc3)NC(=O)[C@@H](N)Cc3c[nH]c4ccccc34)C(=O)C12)C(=O)N[C@@H](Cc1ccc(O)cc1)C(=O)N[C@@H](Cc1ccc(O)cc1)C(N)=O` (stereo partly specified) (H-WF[X2]LYY-NH2) displayed an IC50 in assay [1] of 0.5 µM.

In turn, `NC(=S)N/N=C/c1c(-c2ccccc2)[nH]c2ccccc12` came in with an IC50 in assay [1] of 0.06 µM.
